Measurements from patent US20040147006A1, “Peptides that bind to DNA and inhibit DNA replication, and methods of use” (priority 2001, published 2004).
Entries after “also recorded” stand apart in the source; their conditions may differ. Like-named read-outs stand apart in the source and are kept apart here.

Experiments:
[1] = test system: double stranded oligonucleotide containing the SV40 core origin (SEQ ID NO: 24); experiment: Nitrocellulose filter binding of peptide to DNA; conditions: for Binding to DNA in filter binding assay, mutant set: 20 nmoles peptide (1 mM final concentration); for Binding to DNA in filter binding assay, E1 peptides: peptide 0.25 mM and 0.5 mM
Description: Nitrocellulose filter binding reactions. Assay for the ability of NLS based peptides to bind to DNA were performed using published methods (Sreekumar, K. A., et al., 2000, In, L. Raptis (ed.), Methods in Molecular Biology: SV40 Protocols; Humana Press, Totowa, N.J. p. 49-67). Reactions (20 μl) contained 7 mM MgCl2, 0.5 mM DTT, 4 mM AMP-PNP, 40 mM creatine phosphate (di-Tris salt pH7.7), 0.48 μg of creatine phosphokinase, 0.2 mg of bovine serum albumin per ml, 0.8 μg of Hae III-digested pBR322 DNA, about 25 fmol of a given oligonucleotide (about 10^6 cpm/pmol) and the indicated peptide. After incubation for 20 min at 37° C., the mixtures were filtered under suction through alkali-treated nitrocellulose filters (Millipore type HAWP; pore size, 0.4 μm; stored in 100 mM Tris-HCl, pH7.5). The filters were then washed with 5 ml of 100 mM Tris-HCl, pH 7.5, and were dried and counted in a Beckman LS 3801 scintillation counter.

[2] = test system: 64 bp enhancer control (SEQ ID NO: 29); experiment: Peptide band shift (EMSA without T-ag), control oligonucleotide; assay type: binding; conditions: 64 bp enhancer control oligonucleotide; listed as peptide T124A13
Description: (§1) Electrophoretic mobility shift assays (EMSA). Double stranded oligonucleotides, ^32P labeled at 5′ termini, were prepared using standard procedures (Sambrook, J., et al., 1989, Cold Spring Harbor Laboratory, Cold Spring Harbor, N.Y.; Sreekumar, K. A., et al., 2000, p. 49-67; In, L. Raptis (ed.), Methods in Molecular Biology; SV40 Protocols; Humana Press; Totowa, N.J.). EMSA rections were conducted using conditions for SV40 in vitro replication (Wobbe, C. R., et al., 1985, Proc. Natl. Acad. Sci. USA 82:5710-571 4). The reactions (20 μl) contained 7 mM MgCl2, 0.5 mM DTT, 4 mM AMP-PNP, 40 mM creatine phosphate (pH 7.6), 0.48 μg of creatine phosphate kinase, 5 μg of bovine serum albumin, 0.8 μg of Hae III-digested pBR322 ([…]; used as a nonspecific competitor), about 25 fmol of double stranded oligonucleotide, T-ag and the indicated amounts of peptide. After a 20-min incubation at 37° C., glutaraldehyde (0.1 % final concentration) was added and the reaction products were further incubated for 5 min. The reactions were stopped by the addition of 5 μl of 6× loading dye II (15% Ficoll, 0.25% bromophenol blue, and 0.25% xylene cyanol; Sambrook, J., et al., 1989, Cold Spring Harbor Laboratory, Cold Spring Harbor, N.Y.) to the reaction mixtures. Samples containing T-ag were applied to 3.5 to 12% gradient polyacrylamide gels and electrophoresed in 0.5% Tris-borate-EDTA (TBE) pH 8.4 for about 1.5 h (10 watts).
Peptide based band shift reactions were identical to those described above except that T-ag was omitted from the reactions and the final glutaraldehyde concentration was reduced to 0.05 %. Moreover, the samples were loaded on 8% polyacryamide gels and electrophoresed in 0.5% TBE pH 8.4 for about 3h (about 200 volts). The gels were dried on Whatman 3 MM paper, subjected to autoradiography and quantitated using a Molecular Dynamics PhosphorImager (Sunnyvale, Calif.).

[3] = target: T1, T-ag oligomerization on 64-bp oligonucleotide containing the SV40 core origin (Simian virus 40, UniProt P03070); assay type: biochemical; conditions: for Effect on T-ag oligomerization: peptide final concentration 0.5 mM
T1 construct: made in house
T1 sequence (P03070 whole entry): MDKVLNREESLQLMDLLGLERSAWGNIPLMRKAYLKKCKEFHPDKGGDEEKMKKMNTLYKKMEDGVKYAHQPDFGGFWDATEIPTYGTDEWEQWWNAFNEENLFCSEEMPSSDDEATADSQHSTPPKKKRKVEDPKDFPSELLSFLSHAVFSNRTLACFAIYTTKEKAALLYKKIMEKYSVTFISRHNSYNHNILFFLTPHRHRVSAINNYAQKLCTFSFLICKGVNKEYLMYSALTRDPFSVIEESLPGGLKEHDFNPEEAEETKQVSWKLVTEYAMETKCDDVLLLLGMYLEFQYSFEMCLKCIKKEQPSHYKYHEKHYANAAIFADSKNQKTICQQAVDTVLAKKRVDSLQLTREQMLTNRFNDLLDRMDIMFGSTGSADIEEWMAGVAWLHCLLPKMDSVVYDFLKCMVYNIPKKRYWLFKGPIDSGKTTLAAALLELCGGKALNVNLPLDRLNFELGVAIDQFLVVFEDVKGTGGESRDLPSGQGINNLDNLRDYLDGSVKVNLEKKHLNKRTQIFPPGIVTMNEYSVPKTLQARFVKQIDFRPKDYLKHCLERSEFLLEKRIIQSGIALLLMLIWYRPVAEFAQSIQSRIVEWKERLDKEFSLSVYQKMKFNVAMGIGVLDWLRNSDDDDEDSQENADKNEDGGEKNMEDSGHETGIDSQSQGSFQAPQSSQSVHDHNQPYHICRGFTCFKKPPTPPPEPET
Description: as §1

[4] = test system: 64 bp SV40 core origin (SEQ ID NO: 24); experiment: Peptide band shift (EMSA without T-ag), core origin; assay type: binding; conditions: SV40 core origin
Description: as §1
[…] Moreover, the samples were loaded on 8% polyacryamide gels and electrophoresed in 0.5% TBE pH 8.4 for about 3h (about 200 volts). The gels were dried on Whatman 3 MM paper, subjected to autoradiography and quantitated using a Molecular Dynamics PhosphorImager (Sunnyvale, Calif.).

T-ag helicase ATPase = target: T2, T-ag helicase ATPase (Simian virus 40, UniProt P03070); assay type: biochemical, SV40; conditions: duplicate lanes, FIG. 13
T2 construct: made in house
T2 sequence (P03070 whole entry): as above
Description: A method for measuring ATP hydrolysis involves incubating T-ag with a ^32P-labeled ATP, cross-linking with gluteraldehyde, removing unincorporated nucleotides by passing the reaction products over a Bio-Spin P-30 column, drying the eluate in a Speedvac, resuspending the samples in formic acid, and performing thin layer chromatography on PEI (polyethyleneimine) plates. Using autoradiography, the amount of ATP, ADP and AMP associated with T-ag was determined.

[5] = test system: SV40 DNA replication in HeLa human cell crude extracts; experiment: SV40 in vitro replication reaction; assay type: biochemical; conditions: 30 μl reactions, with T-ag
Description: DNA replication reactions. SV40 in vitro replication reactions were conducted as described by Wobbe et al 1985, Proc. Natl. Acad. Sci. USA 82:5710-5714 (see also, Bullock, P. A., et al., 1998, p. 223-243. In S. Cotterill (ed.), Eukaryotic DNA Replication; A practical Approach, Oxford University Press, Oxford). Reaction mixtures (30 μl) contained 7 mM MgCl2, 0.5 mM DTT, 4 mM ATP, 40 mM creatine phosphate (di-Tris salt pH7.7), 1.4 μg of creatine phosphokinase, 12.5 μg/ml pSV01ΔEP, dATP, dGTP, and dTTP (100 μM each), CTP, GTP, and UTP (200 μM each), [α-^32p] dCTP (20 μM, about 5 cpm/fmol) and the indicated peptides.

[6] = T-ag 6 pmol, 64-bp SV40 core origin, peptide concentration not given
[7] = 13-mer set at 1 mM final concentration (20 nmoles)
[8] = peptide 0.5 mM to 2 mM, replication conditions, pBR322 competitor
[9] = high peptide concentrations (1 mM and 2 mM)
[10] = peptide final concentration 1 mM (20 nmoles), T-ag 6 pmol

ADSQHSAPPKKKR [T124A13] was tested, and the “Binding to DNA in filter binding assay, mutant set” value (“Binding to DNA … mutant set” below) [1] was “bind to DNA as well as does wild type peptide T-213”, the “Peptide/DNA complex formation in peptide band shift” value [2] was “does not require a large degree of sequence specificity; also recorded: requires little demonstrable nucleotide sequence specificity; also recorded: Mobility shifts are seen” and the “Effect on T-ag oligomerization, mutant set (FIG. 11 Panel B)” value (“Effect … (FIG. 11 Panel B)” for short) [3, 6] was “does not destroy the inhibitory property of the peptide”. The “Peptide/DNA complex formation in peptide band shift” value [4, 7] was “does not affect DNA binding” and the “Peptide/DNA complex formation in peptide band shift” value ([4]; 13-mer set at 1 mM final concentration (20 nmoles), listed as peptide T124A13) was “bound to DNA and formed a complex; also recorded: Mobility shifts are seen”.

In the case of ADSQHSTAPKKKR [P125A13], the “Binding to DNA … mutant set” value [1] is reported as “bind to DNA as well as does wild type peptide T-213” and the “Effect … (FIG. 11 Panel B)” value [3, 6] is reported as “Full inhibition of oligomerization”.

For ADSQHSTPAKKKR [P126A13], the “Binding to DNA … mutant set” value [1] was “bind to DNA as well as does wild type peptide T-213” and the “Effect … (FIG. 11 Panel B)” value [3, 6] was “Full inhibition of oligomerization”.

ADSQHSpTPPKKKR [peptide 113] was tested, and the “Binding to DNA in filter binding assay” value [1, 8] was “did not bind DNA at significant levels”, the “Binding to DNA in filter binding assay” value ([1]; peptide 0.5 mM to 2 mM, replication conditions, pBR322 competitor, listed as peptide T-113) was “did not bind to the oligonucleotide at significant levels” and the “Effect on T-ag oligomerization (hexamer and double hexamer formation)” value (“Effect … (hexamer and double hexamer formation)” below) [3] was “little or no effect on T-ag oligomerization”. The “Effect … (FIG. 11 Panel B)” value [3] was “did not; also recorded: no inhibition of oligomerization of T-ag” and the “Effect on ATPase of T-ag” value (T-ag helicase ATPase) was “did not modulate the ATPase of T-ag activity”.

In the case of “ATADSQHSTPPKKKRKV (Virus; Host Macaca mulatta; DOMAIN (1)..(17) Domain SV40 T-Antigen (116)...(132)) [peptide 217, 17-mer of SV40 T-ag with complete NLS]”, the “Binding to DNA in filter binding assay” value [1, 9] is reported as “saturated”, the “Binding to DNA in filter binding assay” value ([1]; peptide 0.5 mM) is reported as “significant binding was observed” and the “Binding to DNA in filter binding assay” value [1, 8] is reported as “relatively high affinity for binding to DNA”. The “Binding to DNA in filter binding assay” value ([1]; peptide 0.5 mM to 2 mM, replication conditions, pBR322 competitor, listed as peptide T-217) was “higher affinity for this DNA than does peptide T-213”, the “Effect on T-ag oligomerization” value ([3]; T-ag 6 pmol) was “inhibited T-ag oligomerization” and the “Effect … (hexamer and double hexamer formation)” value [3, 10] was “completely blocked”. For the same substance, the “Inhibition of SV40 in vitro DNA replication” value (from here on “Inhibition of SV40”) [5] was “not an efficient inhibitor of DNA replication; also recorded: unable to inhibit replication”.

For ATADSQHSpTPPKKKRKV [peptide 117], the “Binding to DNA in filter binding assay” value [1, 9] was “observed to bind to DNA”, the “Binding to DNA in filter binding assay” value ([1]; high peptide concentrations (1 mM and 2 mM), listed as peptide T-117) was “observed to bind to DNA at higher peptide concentrations” and the “Effect … (hexamer and double hexamer formation)” value [3] was “no inhibition of T-ag assembly”.

In the case of “KKRRKRVKLVGPSTSEQSNASESSG [SEQ ID NO: 30]”, the “Inhibition of SV40” value [5] is reported as “retains ability to inhibit replication of DNA” and the “Inhibition of SV40” value ([5]; listed as SEQ ID NO:30) is reported as “good inhibitor of DNA replication”.

“PPKKKRKVTATADSQHS [peptide 417, rearranged control 17-mer]” was tested, and the “Binding to DNA in filter binding assay” value [1, 9] was “observed to bind to DNA”, the “Binding to DNA in filter binding assay” value ([1]; high peptide concentrations (1 mM and 2 mM), listed as peptide T-417) was “observed to bind to DNA at higher peptide concentrations” and the “Effect on T-ag oligomerization” value ([3]; T-ag 6 pmol) was “did not inhibit”. For the same substance, the “Effect on T-ag oligomerization” value ([3]; T-ag 6 pmol, listed as peptide T-417) was “did not”.

For PPKKKRKVpTATADSQHS [peptide 317], the “Effect … (hexamer and double hexamer formation)” value [3] was “no inhibition of T-ag assembly”.

“PPKKKRTADSQHS [peptide 413, rearranged control 13-mer]” was tested, and the “Binding to DNA in filter binding assay” value [1, 9] was “Low levels of binding”, the “Binding to DNA in filter binding assay” value ([1]; high peptide concentrations (1 mM and 2 mM), listed as peptide T-413) was “low levels of binding” and the “Effect … (hexamer and double hexamer formation)” value [3, 10] was “little or no effect on T-ag oligomerization”. For the same substance, the “Peptide/DNA complex formation in peptide band shift” value [4, 7] was “did not”.

PPKKKRpTADSQHS [peptide 313] was tested, and the “Effect … (hexamer and double hexamer formation)” value [3] was “little or no effect on T-ag oligomerization”.

For “RKVLGSSQNSSGSEASEpTPVKRRK [peptide E1-P125]”, the “Binding to DNA in filter binding assay, E1 peptides” value [1] was “binds to DNA at levels similar to the control peptide E1-425” and the “Effect on ATPase of T-ag” value (T-ag helicase ATPase) was “had no effect”.

In the case of “SEASETPVKRRKGKRKVLGSSQNSS [control BP-E125]”, the “Binding to DNA in filter binding assay, E1 peptides” value [1] is reported as “bound to DNA at much reduced levels”, the “Effect on T-ag assembly, E1 Cdk/NLS peptides” value ([3]; 5 nmol peptide, final concentration 0.25 mM, T-ag 6 pmol) is reported as “found not to block T-ag assembly” and the “Inhibition of SV40” value [5] is reported as “not an efficient inhibitor of replication”.

In the case of SQHSTPPKK [peptide 29], the “Peptide/DNA complex formation in peptide band shift” value ([4]; peptide 2 mM) is reported as “binding was not detected”.
